This note sets out measurements from patent US20210379057A1, “NUTLIN-3A FOR USE IN TREATING A MYCOBACTERIUM TUBERCULOSIS INFECTION” (Massachusetts Institute of Technology, priority 2018, published 2021).

Data set [1] deals with Mycobacterium tuberculosis (Mtb) in primary human CD14+ monocyte-derived macrophages. Format: cell-based.
Data set [2] has as its system Mtb infected macrophages. As to the kind of experiment: Macrophage death in Mtb infected macrophages. Particulars: Mtb infected macrophages treated with compound.
For data set [3], the system named is p53. Format: cell-based, human.

As to `Cc1ccc2nc(NCCN)c3ncc(C)n3c2c1` [BMS-345541], in data set [1], the “Mtb control (bacterial survival, ratio of live GFP+ to total mCherry+ pixels)” value is recorded as “worsened bacterial control”.
For the compound `O=C(Nc1cc(Cl)cc2c1[nH]c1cnccc12)c1cccnc1` [PS-1145], in data set [1], the “Mtb control (bacterial survival, ratio of live GFP+ to total mCherry+ pixels)” value is reported as “worsened bacterial control”.
As to `NNC(=O)c1ccncc1` [isoniazid], the “GFP+/RFP+ pixel area” value in data set [1] is recorded as “decrease in the GFP+/RFP+ pixel area”.
As for `COc1ccc(C2=N[C@@H](c3ccc(Cl)cc3)[C@@H](c3ccc(Cl)cc3)N2C(=O)N2CCNC(=O)C2)c(OC(C)C)c1` [nutlin-3a], the macrophage death result in data set [2] is recorded as “without increasing macrophage death”. Moreover, the “expression of p53” value in data set [3] is recorded as “enhanced expression of p53”. Moreover, in data set [1], the “Mtb control (bacterial survival, ratio of live GFP+ to total mCherry+ pixels)” value was “significantly increased Mtb control”.
